In ChEMBL document CHEMBL2029230, “Identification, design and biological evaluation of heterocyclic quinolones targeting Plasmodium falciparum type II NADH:quinone oxidoreductase (PfNDH2)” (J Med Chem, 2012):
Values belong to the molecule of their own block, whether it stands above or below them.

Experiments:
[1] = system: Plasmodium falciparum; experiment: Antimalarial activity against blood stage forms of Plasmodium falciparum 3D7 infected in human erythrocytes; assay type: functional, organism-based
[2] = Inhibition of Plasmodium falciparum recombinant NDH2 expressed in Escherichia coli F571 using decyclubiquinone as substrate at 1 min by spectrophotometry
[3] = system: Plasmodium falciparum; experiment: Antimalarial activity against […]-resistant Plasmodium falciparum TM90C2B containing cytochrome-b Y268S mutant; assay type: functional, organism-based
[4] = Inhibition of Plasmodium falciparum cytochrome b-c1 complex using decylubiquinol as substrate by spectrophotometry
[5] = system: Plasmodium falciparum; experiment: Antimalarial activity against chloroquine-resistant Plasmodium falciparum W2; assay type: functional, organism-based
[6] = system: Plasmodium berghei; experiment: Antimalarial activity against Plasmodium berghei NS infected in CD1 mouse assessed as decrease in parasitemia at 20 mg/kg, po administered using SSV as vehicle measured on day 4; assay type: functional; parameters: scale not given: the % may be the effect or the level left
[7] = system: Plasmodium berghei; experiment: Antimalarial activity against Plasmodium berghei NS infected in po dosed CD1 mouse assessed as decrease in parasitemia measured on day 4; assay type: functional; details: 96 h
[8] = system: HepG2; experiment: Cytotoxicity against human HepG2 cells; assay type: cell-based
[9] = Metabolic stability in human liver microsomes assessed as compound remaining at 1 uM after 60 mins; assay type: ADME, Microsome; details: read-out: Stability
[10] = system: Liver microsomes; experiment: Half life in human liver microsomes at 1 uM; assay type: ADME, Microsome
[11] = Cmax in rat at 20 mg/kg, po; assay type: ADME, organism-based; parameters: dose 20 mg/kg, route oral; details: in vivo
[12] = Tmax in rat at 20 mg/kg, po; assay type: ADME, organism-based; parameters: dose 20 mg/kg, route oral; details: in vivo
[13] = Half life in rat at 20 mg/kg, po; assay type: ADME, organism-based; parameters: dose 20 mg/kg, route oral; details: in vivo
[14] = system: Rattus norvegicus; experiment: Volume of distribution in rat at 20 mg/kg, po; assay type: ADME, organism-based; parameters: dose 20 mg/kg, route oral; details: in vivo
[15] = AUC (0 to t) in rat at 20 mg/kg, po; assay type: ADME, organism-based; parameters: dose 20 mg/kg, route oral; details: plasma
[16] = Total clearance in rat at 20 mg/kg, po; assay type: ADME, organism-based; parameters: dose 20 mg/kg, route oral; details: in vivo
[17] = system: Plasmodium berghei; experiment: Antimalarial activity against Plasmodium berghei NS infected in CD1 mouse assessed as decrease in parasitemia at 20 mg/kg, po administered using DET as vehicle measured on day 4; assay type: functional; parameters: scale not given: the % may be the effect or the level left

IC50 [1]: > 1000 nM
SMILES: Cc1c(-c2ccc(-c3ccc(OCCN4CCOCC4)cc3)nc2)[nH]c2ccccc2c1=O

IC50 [1]: 940 nM
SMILES: Cc1c(-c2c(F)cc(-c3ccc(OC(F)(F)F)cc3)cc2F)[nH]c2ccccc2c1=O

IC50 [1]: 96 nM | IC50 [2]: 8.1 nM
SMILES: Cc1c(-c2ccc(-c3ccccc3C(F)(F)F)cc2)[nH]c2ccccc2c1=O

IC50 [1]: 213 nM
SMILES: Cc1c(-c2ccc(-c3ccc(F)cc3F)cc2)[nH]c2ccccc2c1=O

IC50 [1]: 471 nM
SMILES: Cc1c(-c2ccc(-c3ccccc3F)cc2)[nH]c2ccccc2c1=O

IC50 [1]: 347 nM
SMILES: CCOC(=O)c1c(-c2ccc(-c3ccc(OC(F)(F)F)cc3)cc2)[nH]c2ccccc2c1=O

SMILES: CCOC(=O)c1c(-c2ccc(-c3ccc(Cl)cc3)cc2)[nH]c2ccccc2c1=O
IC50 [1]: 220 nM | IC50 [3]: 1150 nM

SMILES: O=c1c(CO)c(-c2ccc(-c3ccc(OC(F)(F)F)cc3)cc2)[nH]c2ccccc12
IC50 [1]: 162 nM | IC50 [2]: 69 nM | IC50 [3]: 361 nM

SMILES: Cc1c(-c2ccc(-c3ccc(OC(F)(F)F)cc3)nc2)[nH]c2ccccc2c1=O
IC50 [1]: 54 nM | IC50 [2]: 15 nM | IC50 [4]: 15 nM | IC50 [3]: 344 nM | IC50 [5]: 50 nM | Activity [6]: 87.5% | ED50 [7]: 12.8 mg/kg | ED90 [7]: 27.3 mg/kg | CC50 [8]: > 50000 nM | remaining at 1 h, 1 µM [9]: 60% | t1/2 [10]: 1.61 h | Cmax [11]: 3700 ng/mL | Tmax [12]: 7 h | half-life [13]: 9.9 h | Vd [14]: 3.9708 L/kg | AUC(0-t) [15]: 69300 ng·h/mL | CL/F [16]: 4.61 mL/min/kg | Activity [17]: 100%

IC50 [1]: > 1000 nM
SMILES: COc1cccc2[nH]c(-c3ccc(-c4ccc(OC(F)(F)F)cc4)nc3)c(C)c(=O)c12

SMILES: Cc1c(-c2ccc(-c3ccc(OC(F)(F)F)cc3)nc2)[nH]c2ccc(Cl)cc2c1=O
IC50 [1]: 298 nM | IC50 [3]: 410 nM

IC50 [1]: > 1000 nM
SMILES: COc1ccc2[nH]c(-c3ccc(-c4ccc(OC(F)(F)F)cc4)nc3)c(C)c(=O)c2c1

IC50 [1]: > 1000 nM
SMILES: Cc1c(-c2ccc(-c3ccc(OC(F)(F)F)cc3)nc2)[nH]c2ccc(OC(F)(F)F)cc2c1=O

IC50 [1]: > 1000 nM
SMILES: Cc1c(-c2ccc(-c3ccc(OC(F)(F)F)cc3)nc2)[nH]c2ccc(C(F)(F)F)cc2c1=O

SMILES: Cc1c(-c2ccc(-c3ccc(OC(F)(F)F)cc3)nc2)[nH]c2cc(F)ccc2c1=O
IC50 [1]: 75 nM | IC50 [2]: 4.2 nM | IC50 [4]: 26.8 nM | IC50 [5]: 70 nM

IC50 [1]: 373 nM
SMILES: Cc1c(-c2ccc(-c3ccc(OC(F)(F)F)cc3)nc2)[nH]c2cc(Cl)ccc2c1=O

IC50 [1]: > 1000 nM
SMILES: Cc1c(-c2ccc(-c3ccc(OC(F)(F)F)cc3)nc2)[nH]c2cc(C(F)(F)F)ccc2c1=O

IC50 [1]: > 1000 nM
SMILES: Cc1c(-c2ccc(-c3ccc(OC(F)(F)F)cc3)nc2)[nH]c2cc(S(C)(=O)=O)ccc2c1=O

IC50 [1]: > 1000 nM
SMILES: COc1cccc2c(=O)c(C)c(-c3ccc(-c4ccc(OC(F)(F)F)cc4)nc3)[nH]c12

IC50 [1]: 286 nM | IC50 [2]: 2.6 nM
SMILES: Cc1c(-c2ccc(-c3ccc(OC(F)(F)F)cc3)nc2)[nH]c2cc(F)cc(F)c2c1=O

IC50 [1]: 344 nM
SMILES: Cc1c(-c2ccc(-c3ccc(OC(F)(F)F)cc3)nc2)[nH]c2cc(F)c(F)cc2c1=O

IC50 [1]: 390 nM
SMILES: Cc1c(-c2ccc(-c3ccc(OC(F)(F)F)cc3)nc2)[nH]c2cc(F)c(Cl)cc2c1=O

IC50 [1]: 390 nM
SMILES: Cc1c(-c2ccc(-c3ccc(OC(F)(F)F)cc3)nc2)[nH]c2cc(Cl)c(F)cc2c1=O

SMILES: Cc1c(-c2ccc(-c3ccc(C(F)(F)F)cc3)nc2)[nH]c2ccccc2c1=O
IC50 [1]: 102 nM | IC50 [2]: 13.9 nM | IC50 [3]: 314 nM

IC50 [1]: 219 nM | IC50 [2]: 88.6 nM
SMILES: Cc1c(-c2ccc(-c3ccc(F)cc3F)nc2)[nH]c2ccccc2c1=O

IC50 [1]: 556 nM
SMILES: COc1cccc(-c2ccc(-c3[nH]c4ccccc4c(=O)c3C)cn2)c1

IC50 [1]: 280 nM
SMILES: Cc1c(-c2ccc(-c3ccc(OC(F)(F)F)cc3)nc2)[nH]c2ccc(O)cc2c1=O

IC50 [1]: 202 nM
SMILES: Cc1c(-c2ccc(-c3ccc(OC(F)(F)F)cc3)nc2)[nH]c2cc(O)ccc2c1=O

IC50 [1]: > 1000 nM
SMILES: Cc1c(-c2ccc(-c3ccc(OC(F)(F)F)cc3)nc2)[nH]c2c(O)cccc2c1=O

IC50 [1]: > 1000 nM
SMILES: Cc1c(-c2ccc(-c3cccc(O)c3)nc2)[nH]c2ccccc2c1=O

IC50 [1]: > 1000 nM
SMILES: Cc1c(-c2ccc(-c3ccc(O)cc3)nc2)[nH]c2ccccc2c1=O

SMILES: Cc1c(-c2ccc(-c3ccccc3C(F)(F)F)nc2)[nH]c2ccccc2c1=O
IC50 [1]: 109 nM | IC50 [2]: 352 nM | IC50 [3]: 381 nM | IC50 [5]: 88 nM

SMILES: Cc1c(-c2ccc(-c3ccccc3F)nc2)[nH]c2ccccc2c1=O
IC50 [1]: 151 nM | IC50 [2]: 131 nM | IC50 [3]: 324 nM | IC50 [5]: 120 nM
